Source: patent US20240239805A1, “AZA-YANG CYCLIZATION-BUCHNER AROMATIC RING EXPANSION: COLLECTIVE SYNTHESIS OF CYCLOHEPTATRIENE-CONTAINING AZETIDINE LACTONES” (University of Kansas, priority 2022, published 2024)

Tested on: U-2 OS (ATCC, HTB-96) cells
Experiment: Cell Painting: changes in cell morphology induced by synthesized compounds
Assay type: cell-based
Settings: U-2 OS cells, 24-hour treatment; for Determination of bioactives: reproducibility of fingerprints and magnitude of the activity: Cell Painting feature vectors vs DMSO, 3 repeats, FIG. 8; for Clustering of fingerprints (similarity of fingerprints) with known bioactives: Cell Painting, cosine similarity, FIG. 9
Procedure: U-2 OS (ATCC, HTB-96) cells were cultured in T-75 flasks (Greiner, 658170) under McCoy's 5a medium (HIMedia, AT057), supplemented with 10% fetal bovine serum (FBS) and 1% Penicillin/Streptomycin solution, and incubated at 37° C. in a 5% CO2 atmosphere. Upon reaching 80% confluence, cells were washed, trypsinized (0.25% solution with EDTA, VWR, M143), and removed. Flasks were reseeded with one-fifth of the cell count for each passage. All cell plates reported in this paper were composed of U-2 OS from incubation lengths of five or fewer passages. 384 Black-welled plates with optically clear bottoms (Corning, 6569) were seeded with U-2 OS at a density of 1,000 cells per well and cells were allowed to incubate for 24 h to ensure adherence.
Three compound plates (Thermo Scientific, AB-1056) were constructed using an initial aliquot of a 50 mM compound solution solubilized in DMSO. Each compound aliquot was then twofold serially diluted in DMSO to yield eight concentrations ranging from 50 mM to 390 μM. This process was repeated so that compound plate 1 contained each of the 16 test (cycloheptatriene) compounds and one azetidinol, compound plate 2 contained 19 esters, and compound plate 3 contained the diazo compounds. Vehicle treatments were included in the plate design as DMSO-containing wells (around 200) with no added compound. Staurosporine diluted to 500 μM in DMSO was included on the plate as a positive control to test the transfer of compounds from pin transfer.
After a 24 h incubation period, untreated cell-containing plates and the compound plate were each fitted into a Library Copier, and a sterile Multi-Blot Replicator (V and P Scientific) was used to transfer a 100 nL volume from each well of the 384 well compound plate into the culture media (50 μL) of a corresponding well on the 384 well cell plate. These cell plates were reintroduced to a 37° C., 5% CO2 atmosphere for the duration of the 24-hour treatment period.
1 L of Hank's Buffered Saline Solution (HBSS) (1× from 10×) was prepared using 100 mL HBSS (10×) and diluted with 900 mL deionized water. The pH of the solution was adjusted to 7.2 with aqueous NaOH and filtered through a 0.2-micron filter. A 1% w/v solution of BSA (VWR, 0332) was prepared in 1×HBSS using 150 mg BSA, dissolved in 15 mL HBSS. The solution was filtered through a 0.2-micron filter. Live-cell MitoTracker (Thermo Fisher, M22426) staining solution was prepared using 6.5 μL of MitoTracker staining solution from a stock of 1 mM MitoTracker and dissolved in 13 mL of pre-warmed cell culture medium (RPMI) for a final concentration of 500 nM.
Staining dyes: a. […]

| Structure (SMILES) | Determination of bioactives: reproducibility of fingerprints and magnitude of the activity | Clustering of fingerprints (similarity of fingerprints) with known bioactives |
| --- | --- | --- |
| CC(C)(C)OC(=O)n1cc(C23C=CC=CC=C2[C@@]2(CN4CCCC[C@H]42)OC3=O)c2ccccc21 (stereo partly shown) [Compound 1-1-3] | showed reproducible fingerprints and magnitude of the activity | – |
| O=C1O[C@]2(CN3CCCC[C@H]32)C2=CC=CC=C[C@@]12c1ccsc1 [Compound 1-1-4] | showed reproducible fingerprints and magnitude of the activity | – |
| CC(=O)O[C@H]1C(=O)[C@@]2(C)[C@H]([C@H](OC(=O)c3ccccc3)[C@]3(O)C[C@H](OC(=O)[C@H](O)[C@@H](NC(=O)c4ccccc4)c4ccccc4)C(C)=C1C3(C)C)[C@]1(OC(C)=O)CO[C@@H]1C[C@@H]2O [taxol] | – | cluster together |
| CC[C@]1(O)C[C@H]2CN(CCc3c([nH]c4ccccc34)[C@@](C(=O)OC)(c3cc4c(cc3OC)N(C=O)[C@H]3[C@@](O)(C(=O)OC)[C@H](OC(C)=O)[C@]5(CC)C=CCN6CC[C@]43[C@@H]65)C2)C1 [vincristine] | – | cluster together |
